In US20050032124A1, “Identification of genotype-selective agents for treating Huntington's disease” (priority 2003, published 2005):
≈ marks a conversion by molar mass, not a printed value. Read-outs that look alike come from different tables or passages of the source.

How the values were obtained:
Experiment in all cases: Calcein AM viability assay, dilution-series retest
Format in all cases: cell-based, human
[1] = system: BJ-TERT/LT/ST/RAS^V12 tumorigenic cells; details: for IC50: Homo sapiens, 48 h, read-out: IC50, BJ-TERT/LT/ST/Ras^V12; for Tumor Selectivity: IC50 in primary BJ cells divided by IC50 in BJ-TERT/LT/ST/RAS^V12 tumorigenic cells
Method: Described here is work carried out to identify compounds with increased potency or activity in the presence of hTERT, LT, ST, E6, E7 or RAS^V12. […] The primary screen tested (in quadruplicate) the effect of treating tumorigenic BJ-TERT/LT/ST/RAS^V12 engineered tumorigenic cells with each compound for 48 hours at a concentration of 4 μg/mL, corresponding to 10 μM for a compound with a molecular weight of 400, which is the approximate median molecular weight of the libraries. Cell viability was measured using the dye calcein acetoxymethyl ester (calcein AM) (Wang et al., 1993, Hum. Immunol. 3 7, 264-270), which is a non-fluorescent compound that freely diffuses into cells. In live cells, calcein AM is cleaved by intracellular esterases, forming the anionic fluorescent derivative calcein, which cannot diffuse out of live cells. […] The IC50 value (concentration required to inhibit 50% of the calcein AM signal) was calculated for each compound in each cell line (Table 1).
(§1) Calcein acetoxylmethyl ester (AM) is a cell membrane-permeable, non-fluorescent compound that is cleaved by intracellular esterases to form the anionic, cell-impermeable, fluorescent compound calcein. Viable cells are stained by calcein because of the presence of intracellular esterases and because the intact plasma membrane prevents fluorescent calcein from leaking out of cells (Wang et al., 1993, supra). Cells were seeded in 384-well plates using a Zymark Sciclone ALH, treated with each compound in triplicate at 4 μg/mL in the primary screen for two days, washed with phosphate-buffered saline on a Packard Minitrak with a 384-well washer and incubated for four hours with 0.7 μg/mL calcein (Molecular Probes). Total fluorescence intensity in each well was recorded on a Packard Fusion platereader, and converted to a percent inhibition of signal by subtracting the instrument background and dividing by the average signal obtained when cells were not treated with any compound.
(§2) Replica daughter plates were prepared with a Zymark Sciclone ALH and integrated Twister II by diluting stock plates 50 fold in medium lacking serum and pen/strep to obtain a compound concentration in daughter plates of 80 μg/ml with 2% DMSO. Assay plates were prepared by seeding cells in black, clear bottom 384-well plates in columns 1-23 (6000 cells/well in 57 μl) using a syringe bulk dispenser. Columns 3-22 were treated with compounds from a daughter library plate by transferring 3 μl from the daughter library plate using 384-position fixed cannula array. The final compound concentrations in assay plates were thus 4 μg/ml. The assay plates were incubated for 48 hours at 37° C. in humidified incubator containing 5% CO2. Plate processing for the calcein AM viability assay was performed using an integrated Minitrak/Sidetrak robotic system from Packard Bioscience (Perkin Elmer). Assay plates were washed with phosphate buffered saline, and 20 μl of calcein AM (0.7 μg/ml) per well was added. Plates were incubated at room temperature for 4 hours. Fluorescence intensity was determined using a Fusion platereader with filters centered on an excitation of 485 nm and an emission of 535 nm.
Compounds to be retested were purchased from manufacturers. Stocks were prepared in DMSO at a concentration of 1 mg/ml in 384-well polypropylene plates with a 16-point, two-fold dilution dose curve of each compound in a column, in duplicates. Column 1-2 and 23-24 were left empty for controls. Daughter retest plates were prepared from stock retest plate by diluting 66.6 fold in DMEM in 384-well deep-deep well plates (4.5 μl transfer into 300 μl). Cells were seeded at a density of 6000 per well in 40 μl, and 20 μl was added from a daughter retest plate. The plates were incubated for two days at 37° C. with 5% CO2.

[2] = system: BJ-TERT/LT/RAS^V12/ST cells; details: Homo sapiens, 48 h, read-out: IC50, BJ-TERT/LT/Ras^V12/ST
Description: (§3) Described here is work carried out to identify compounds with increased potency or activity in the presence of hTERT, LT, ST, E6, E7 or RAS^V12. Engineered cell lines with these genetic elements were used to screen […] compounds, including 20,000 compounds from a combinatorial library, 1,990 compounds from the National Cancer Institute diversity collection, and 1,540 biologically active known compounds that were selected and purchased by Applicant and formatted into a screenable collection. The primary screen tested (in quadruplicate) the effect of treating tumorigenic BJ-TERT/LT/ST/RAS^V12 engineered tumorigenic cells with each compound for 48 hours at a concentration of 4 μg/mL, corresponding to 10 μM for a compound with a molecular weight of 400, which is the approximate median molecular weight of the libraries. Cell viability was measured using the dye calcein acetoxymethyl ester (calcein AM) (Wang et al., 1993, Hum. Immunol. 3 7, 264-270), which is a non-fluorescent compound that freely diffuses into cells. In live cells, calcein AM is cleaved by intracellular esterases, forming the anionic fluorescent derivative calcein, which cannot diffuse out of live cells. […] The IC50 value (concentration required to inhibit 50% of the calcein AM signal) was calculated for each compound in each cell line (Table 1). […] Following is a more detailed analysis of these nine compounds.
as §1, §2
(§4) Compounds to be retested were purchased from manufacturers. Stocks were prepared in DMSO at a concentration of 1 mg/ml in 384-well polypropylene plates with a 16-point, two-fold dilution dose curve of each compound in a column, in duplicates. Column 1-2 and 23-24 were left empty for controls. […]

BJ-TERT/LT/ST cells = details: Homo sapiens, 48 h, read-out: IC50, BJ-TERT/LT/ST
Description: as §3, §1, §2, §4

BJ primary cells = details: Homo sapiens, 48 h, read-out: concentration required to achieve 50% inhibition of calcein AM staining (IC50), BJ
Description: as §3, §1, §2, §4

[3] = BJ-TERT/LT/ST/Ras^V12 cells, 16-point two-fold dilution, two days
[4] = BJ-TERT/LT/Ras^V12/ST cells, 16-point two-fold dilution, two days
[5] = BJ-TERT/LT/ST cells, 16-point two-fold dilution, two days
[6] = BJ cells, 16-point two-fold dilution, two days

Structure (SMILES)	IC50 [1, 3] [µg/mL]	Tumor Selectivity [1]	IC50 [2] [µg/mL]	IC50 (BJ-TERT/LT/ST cells) [µg/mL]	IC50 (BJ primary cells; BJ) [µg/mL]	IC50 [2, 4] [µg/mL]	IC50 (BJ-TERT/LT/ST cells; [5]) [µg/mL]	IC50 (BJ primary cells; [6]) [µg/mL]	IC50 [1] [µg/mL]
COc1ccc(C[C@H]2C(=O)N[C@@H](C)C(=O)N(C)[C@@H]3C(=O)N(C)[C@@H](Cc4ccc(O)c(c4)Oc4ccc(cc4)[C@@H]3O)C(=O)N[C@H](C)C(=O)N[C@@H](C)C(=O)N2C)cc1 [Bouvardin]	0.078 (≈ 0.101 µM)	4	0.0195 (≈ 0.0252 µM)	0.0195 (≈ 0.0252 µM)	0.312 (≈ 0.404 µM)	–	–	–	–
CC[C@@]1(O)C(=O)OCc2c1cc1n(c2=O)Cc2cc3ccccc3nc2-1 [Camptothecin]	0.0195 (≈ 0.056 µM)	>512	–	–	–	0.0195 (≈ 0.056 µM)	1.25 (≈ 3.59 µM)	> 5	–
COc1cccc2c1C(=O)c1c(O)c3c(c(O)c1C2=O)C[C@@](O)(C(C)=O)C[C@@H]3O[C@H]1C[C@H](N)[C@H](O)[C@H](C)O1 [Daunorubicin]	0.312 (≈ 0.591 µM)	16	0.625 (≈ 1.18 µM)	0.312 (≈ 0.591 µM)	5 (≈ 9.48 µM)	–	–	–	–
COc1cccc2c1C(=O)c1c(O)c3c(c(O)c1C2=O)C[C@@](O)(C(=O)CO)C[C@@H]3O[C@H]1C[C@H](N)[C@H](O)[C@H](C)O1 [Doxorubicin]	1.25 (≈ 2.3 µM)	>8	–	–	–	1.25 (≈ 2.3 µM)	0.312 (≈ 0.574 µM)	> 5	–
CS[C@H]1SC[C@H]2C(=O)N(C)[C@@H](C(C)C)C(=O)OC[C@@H](NC(=O)c3cnc4ccccc4n3)C(=O)N[C@@H](C)C(=O)N(C)[C@@H]1C(=O)N(C)[C@@H](C(C)C)C(=O)OC[C@@H](NC(=O)c1cnc3ccccc3n1)C(=O)N[C@@H](C)C(=O)N2C [Echinomycin]	–	>8333	0.0012 (≈ 0.00109 µM)	0.0048 (≈ 0.00436 µM)	> 5	–	–	–	0.0012 (≈ 0.00109 µM)
CCOc1ccccc1-n1c(C(C)N2CCN(C(=O)COc3ccc(Cl)cc3)CC2)nc2ccccc2c1=O (stereo not shown) [Erastin]	1.25 (≈ 2.28 µM)	>8	–	–	–	1.25 (≈ 2.28 µM)	> 5	> 5	–
O=C1c2c(O)ccc(O)c2C(=O)c2c(NCCNCCO)ccc(NCCNCCO)c21 [Mitoxantrone]	0.312 (≈ 0.702 µM)	18	–	–	–	0.312 (≈ 0.702 µM)	0.312 (≈ 0.702 µM)	5 (≈ 11.2 µM)	–
NC(=O)c1cn([C@@H]2O[C@H](CO)[C@@H](O)[C@H]2O)c2ncnc(N)c12 [Sangivamycin]	0.078 (≈ 0.252 µM)	4	0.078 (≈ 0.252 µM)	0.195 (≈ 0.63 µM)	0.312 (≈ 1.01 µM)	–	–	–	–
